Laboratory results reported in the supplement of paper PMC10307832.

Assays:
Assay in all cases: relative viability (nuclei count vs DMSO), 5 days (fraction); higher = more cells survive
HCC-78 = system: HCC-78
In short: (§1)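 Cells from lung cancer lines were seeded into 1536-well plates and, one day later, dosed by pin tool. Treatments were either a single drug or a fixed dose of an anchor drug with five library-drug doses (not always all listed) in √10 steps. After 5 days, nuclei were stained in a one-step fixation (final 0.05% Triton X-100, 1% formaldehyde, 1 ug/ml Hoechst) and counted on 4× images, and relative viability is the treated-to-vehicle nuclei ratio, as the median of duplicate plates.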

PC-14 = system: PC-14
In short: as §1

UMC-11 = system: UMC-11
In short: as §1

HCC-15 = system: HCC-15
In short: as §1

NCI-H2023 = system: NCI-H2023
In short: as §1

EPLC-272H = system: EPLC-272H
In short: as §1

COR-L23 = system: COR-L23
In short: as §1

SW 1573 = system: SW 1573
In short: as §1

LC-2-ad = system: LC-2-ad
In short: as §1

NCI-H1651 = system: NCI-H1651
In short: as §1

NCI-H2126 = system: NCI-H2126
In short: as §1

ABC-1 = system: ABC-1
In short: as §1

`NC(=O)Nc1cc(-c2cccc(F)c2)sc1C(=O)N[C@H]1CCCNC1` [AZD7762] + Cc1cc(Nc2cc(N3CCN(C)CC3)nc(Sc3ccc(NC(=O)C4CC4)cc3)n2)n[nH]1 [Tozasertib] (partner 0.1 µM) was tested, and the relative viability (HCC-78; first compound 0.01 µM) was 0.539, the relative viability (HCC-78; first compound 0.03162 µM) was 0.437 and the relative viability (HCC-78; first compound 0.1 µM) was 0.515. It also gave a relative viability (HCC-78; first compound 0.3162 µM) of 0.44, a relative viability (HCC-78; first compound 1 µM) of 0.404 and a relative viability (PC-14; first compound 0.01 µM) of 0.69. It also gave a relative viability (PC-14; first compound 0.03162 µM) of 0.544, a relative viability (PC-14; first compound 0.1 µM) of 0.555 and a relative viability (PC-14; first compound 0.3162 µM) of 0.511. The relative viability (PC-14; first compound 1 µM) was 0.269, the relative viability (UMC-11; first compound 0.01 µM) was 0.191 and the relative viability (UMC-11; first compound 0.03162 µM) was 0.216. For the same compound, the relative viability (UMC-11; first compound 0.1 µM) was 0.202, the relative viability (UMC-11; first compound 0.3162 µM) was 0.194 and the relative viability (UMC-11; first compound 1 µM) was 0.191. It also gave a relative viability (HCC-15; first compound 0.01 µM) of 0.448, a relative viability (HCC-15; first compound 0.03162 µM) of 0.381 and a relative viability (HCC-15; first compound 0.1 µM) of 0.511. It also gave a relative viability (HCC-15; first compound 0.3162 µM) of 0.432, a relative viability (HCC-15; first compound 1 µM) of 0.212 and a relative viability (NCI-H2023; first compound 0.01 µM) of 0.374. For the same compound, the relative viability (NCI-H2023; first compound 0.03162 µM) was 0.307, the relative viability (NCI-H2023; first compound 0.1 µM) was 0.227 and the relative viability (NCI-H2023; first compound 0.3162 µM) was 0.105. For the same compound, the relative viability (NCI-H2023; first compound 1 µM) was 0.0751, the relative viability (EPLC-272H; first compound 0.01 µM) was 0.274 and the relative viability (EPLC-272H; first compound 0.03162 µM) was 0.242. For the same compound, the relative viability (EPLC-272H; first compound 0.1 µM) was 0.248, the relative viability (EPLC-272H; first compound 0.3162 µM) was 0.28 and the relative viability (EPLC-272H; first compound 1 µM) was 0.0908. For the same compound, the relative viability (COR-L23; first compound 0.01 µM) was 0.198, the relative viability (COR-L23; first compound 0.03162 µM) was 0.229 and the relative viability (COR-L23; first compound 0.1 µM) was 0.193. For the same compound, the relative viability (COR-L23; first compound 0.3162 µM) was 0.17, the relative viability (COR-L23; first compound 1 µM) was 0.0829 and the relative viability (SW 1573; first compound 0.01 µM) was 0.225. The relative viability (SW 1573; first compound 0.03162 µM) was 0.186, the relative viability (SW 1573; first compound 0.1 µM) was 0.153 and the relative viability (SW 1573; first compound 0.3162 µM) was 0.15. For the same compound, the relative viability (SW 1573; first compound 1 µM) was 0.117, the relative viability (LC-2-ad; first compound 0.01 µM) was 0.623 and the relative viability (LC-2-ad; first compound 0.03162 µM) was 0.55. For the same compound, the relative viability (LC-2-ad; first compound 0.1 µM) was 0.449, the relative viability (LC-2-ad; first compound 0.3162 µM) was 0.463 and the relative viability (LC-2-ad; first compound 1 µM) was 0.268. The relative viability (NCI-H1651; first compound 0.01 µM) was 0.788, the relative viability (NCI-H1651; first compound 0.03162 µM) was 0.769 and the relative viability (NCI-H1651; first compound 0.1 µM) was 0.74. For the same compound, the relative viability (NCI-H1651; first compound 0.3162 µM) was 0.395, the relative viability (NCI-H1651; first compound 1 µM) was 0.191 and the relative viability (NCI-H2126; first compound 0.01 µM) was 0.889. It also gave a relative viability (NCI-H2126; first compound 0.03162 µM) of 0.888, a relative viability (NCI-H2126; first compound 0.1 µM) of 0.937 and a relative viability (NCI-H2126; first compound 0.3162 µM) of 0.831. For the same compound, the relative viability (NCI-H2126; first compound 1 µM) was 0.454, the relative viability (ABC-1; first compound 0.01 µM) was 0.18 and the relative viability (ABC-1; first compound 0.03162 µM) was 0.178.
